The text below walks through data of patent publication US6355638B1, “Pyrazolo[1,5-d][1,2,4] triazines for enhancing cognition” (Merck Sharp & Dohme Ltd., priority 1999, dated 2002).

The conditions of the first series: background statement; cited from earlier work.
Consider `COC(=O)c1cc2c(cn1)[nH]c1ccccc12` [β-CCM], for which the proconvulsant activity result is reported as “proconvulsant”.

Details in the next series: not given
Turning to `Cc1cc(-c2nncc3c(-c4ccccc4)c(OCc4ncn(C)n4)nn23)no1`, the melting point is 194 to 196 °C.

`Cc1cc(-c2nncc3c(C(C)(C)C)c(OCc4ncn(C)n4)nn23)no1` returned a melting point of 161 to 164 °C.

`Cc1cc(-c2nncc3c(C(C)(C)C)c(OCc4ccccn4)nn23)no1` yielded a melting point of 175 to 178 °C.

For the molecule `Cc1cc(-c2nncc3c(C(C)(C)C)c(OCc4cccnc4)nn23)no1`, the melting point lay within 139 to 141 °C.

Molecule `Cc1cc(-c2nncc3c(C(C)(C)C)c(OCc4ccncc4)nn23)no1` gave a melting point of 119 to 121 °C.

In the case of `Cc1cc(-c2nncc3c(Br)c(OCc4ncnn4C)nn23)no1`, the melting point lay in the range of 239 to 241 °C.

The molecule `Cc1cc(-c2nncc3c(-c4ccco4)c(OCc4ncnn4C)nn23)no1` returned a melting point of 226 to 228 °C.

The conditions of another series: reported in Psychobiology, 21:101-108; cited from earlier work.
As to `COC(=O)c1cc2c(cn1)[nH]c1ccccc12` [β-CCM], the “spatial learning in the Morris watermaze” value is reported as “enhanced spatial learning”.

One may read the melting point as the temperature of the solid-liquid transition.
